Like-named read-outs stand apart in the source and are kept apart here.
How the values were obtained:
[1] = animal models, incorporated in the brain (Fa 2005); cited from earlier work
[2] = CSF fatty acid analysis (passage of the blood-brain barrier); assay type: in vivo, human; details: humans, given as LO+CLA
Experimental: At baseline and during the 3rd visit, aliquots of cerebrospinal fluid (CSF) were collected by lumbar puncture in all patients. Blood and CSF samples were centrifuged and stored at −80° C., until analyses.
The CSF samples were analysed for fatty acid composition, in order to verify whether CLA and erucic acid are able to pass, and to what extent, the blood-brain barrier.
Total lipids were extracted from plasma or CSF using chloroform/methanol 2:1 (v/v) (Folch J, Lees M, Sloane-Stanley GH. A simple method for the isolation and purification of total lipid from animal tissues. J. Biol. Chem. 1957; 226: 497-509). Separation of phospholipids from total lipids was performed as previously reported (Banni S, Carta G, Angioni E, Murru E, Scanu P, Melis MP, et al. Distribution of conjugated linoleic acid and metabolites in different lipid fractions in the rat liver. J Lipid Res 2001; 42: 1056-1061.). […]
Since saturated fatty acids are transparent to UV, they were measured, after methylation, by means of a gas chromatograph (Agilent, Model 6890, Palo Alto, Calif.) equipped with split ratio of 20:1 injection port, a flame ionization detector (FID), an autosampler (Agilent, Model 7673), a 100 m HP-88 fused capillary column (Agilent), and an Agilent ChemStation software system. […]

[3] = rat brain (Golovko and Murphy 2006); cited from earlier work
[4] = in the long run (Kramer et al.); cited from earlier work

| Molecule | passage through the blood-brain barrier [1] | passage of CLA through the blood-brain barrier [2] | passage through the blood-brain barrier [3] | myocardial lipidosis [4] |
| --- | --- | --- | --- | --- |
| conjugated linoleic acid [CLA] | capable of passing through the blood-brain barrier | prompt entry of CLA through the blood-brain barrier in humans |  |  |
| CCCCCCCC/C=C\CCCCCCCCCCCC(=O)O [erucic acid] |  |  | hardly passes through the blood-brain barrier | cause in the long run myocardial lipidosis |

— US20110306664A1, “MEDICAL DIETARY COMPOSITION FOR TREATING NEURODEGENERATIVE DISEASES” (SOFEDUS S.R.L., priority 2008, published 2011)
